Literature values as cited in publication PMC8739290, “A phase 1b study of erlotinib and momelotinib for the treatment of EGFR-mutated, tyrosine kinase inhibitor-naive metastatic non-small cell lung cancer” (Cancer Chemotherapy and Pharmacology, 2021).

Tested on: PC-9 and HCC827 models
Set-up: method as in PMID 32297743, doi:10.1158/7445.AM2017-4046
Details: AZD4205 with osimertinib, increased tumor regression, delayed regrowth, knockdown of pSTAT3; cited from earlier work

COc1nn(C)cc1Nc1nccc(-c2c[nH]c3c(NC(=O)[C@@H](C)N4CCN(C)CC4)cccc23)n1 [AZD4205, (2R)-N-[3-[2-[(3-Methoxy-1-methyl-pyrazol-4-yl)amino]pyrimidin-4-yl]-1H-indol-7-yl]-2-(4-methylpiperazin-1-yl)propenamide]
combination activity compared to each agent alone: synergistic activity
